Results from US12018024B2, “Compounds and compositions for the treatment of cryptosporidiosis” (Novartis AG, priority 2020, dated 2024).

Key:
[1] = system: Cryptosporidium parvum; experiment: Cytopathic effect (CPE) based assay, C. parvum-infected HCT-8 cells; type: cell-based; conditions: HCT-8, 48 h, read-out: (b) C.p.* CPE EC50 (μM)
Description: (§1) Human ileocecal colorectal adenocarcinoma cells (HCT-8 [HRT-18] ATCC, CCL-34) were maintained in T-175 flasks (Corning, 431080) in complete growth medium (RPMI-1640 medium (Gibco, 11875) supplemented with 10% heat-inactivated horse serum (Gibco, 26050), 1× MEM non-essential amino acids (Gibco, 11140), 10 mM HEPES (Gibco, 15630), 100 units/mL penicillin, and 100 units/mL streptomycin) at 37° C. and 5% CO2 in a humidified incubator. Cultures were passaged twice weekly using 10 mL of 1× Phosphate-Buffered Saline (PBS) without Ca^2+ and Mg^2+ (Gibco, 20012) for washing and 3-5 mL per T-175 flask of TrypLE Express Enzyme (Gibco, 12604) for dissociation of adherent cells.
Cryptosporidium parvum oocysts purchased from the Sterling Laboratory, University of Arizona (Iowa isolate) were purified from infected calf feces using discontinuous sucrose and cesium chloride centrifugation gradients and stored in PBS solution containing 0.01% Tween 20, 100 units/mL penicillin and 100 units/mL gentamicin.
(§2) Excystaion and infection: Excystation and infection protocols were developed following established methods with some modifications (Gut & Nelson, 1999, Upton et al., 1995, Bessoff et al., 2013). Briefly, oocysts were primed in 1 mL of 10 mM hydrochloric acid in 1× Hank's Balanced Salt Solution (HBSS) (Gibco, 14025) for 10 minutes with agitation at 1000 rpm, 37° C. on an Eppendorf thermomixer, then washed twice with 1 mL of room temperature non-acidic 1× HBSS by centrifugation at 13,000 rpm for 3 minutes at 25° C. Primed oocysts were further excysted at a concentration of 1×10^6 oocysts/μL in parasite infection medium consisting of a pre-warmed and pre-gassed 1:1 formulation of Leibovitz's L-15 medium (Gibco, 11415) and UltraCULTURE medium (Lonza, 12-725F) supplemented with 2 mM sodium taurocholate (Sigma, 86339-1), 10% heat-inactivated horse serum, and 200 μM L-ascorbic acid (Sigma, 95210) at 25° C. for 10 minutes. HCT-8 monolayer cells were infected with excysted cryptosporidium at a specified multiplicity of infection (MOI). All dilutions for subsequent assays were performed in parasite infection medium without sodium taurocholate. Pre-excysted oocysts were enumerated microscopically using a C-Chip disposable hemocytometer (NanoEnTek, DHC-N01).
Compound and assay plate preparation: Compound powders were dissolved in neat DMSO (Fisher, D4121) to 10 mM and stored at 4° C. prior to dilution into source plates. Dilutions were carried out using a Microlab STAR liquid handler (Hamilton) to obtain compound source plates containing the ten-point or eight-point three fold dilutions starting from 10 mM in duplicates. Source plates were stored at 4° C. prior to spotting into assay plates. Before administration, all compound source plates were equilibrated to room temperature. A specified volume of compounds from source plate were spotted to assay plate using an Echo Acoustic liquid handler (LABCYTE, 550) so that the final DMSO concentration was less than 0.5%. Each assay plate a specified number of DMSO-treated negative control wells and a well-studied potent active compound at 100 nM as positive control. As a quality control, all positive and negative-control wells were used to calculate a Z′-value and signal to noise ratio (S:N) for each plate.
Cryptosporidium spp are obligate-intracellular parasites that infect intestinal epithelial cells and the host cell is killed upon parasite egress. […] The loss of epithelial cells is due to both rapid parasite invasion/multiplication/egress and also pro-inflammatory immune response (Adams et al., 1994, Griffiths et al., 1994). We have observed a consistent cytopathic effect (CPE) in HCT-8 cells with C. spp infection the loss of viability of the host cells using CellTiter-Glo reagent.
Confluent HCT-8 cells in T-175 flasks were directly infected with excysted oocysts at an MOI (host to parasite) of 1:2 for C. parvum and 1:4 for C. hominis. […]

[2] = molecular target: H.s. PI(4)K (Homo sapiens, UniProt Q9UBF8); experiment: H.s. PI(4)K IC50; type: biochemical; conditions: read-out: (d) H.s.* PI(4)K IC50
H.s. PI(4)K, sequence (Q9UBF8 2-816 limits assumed): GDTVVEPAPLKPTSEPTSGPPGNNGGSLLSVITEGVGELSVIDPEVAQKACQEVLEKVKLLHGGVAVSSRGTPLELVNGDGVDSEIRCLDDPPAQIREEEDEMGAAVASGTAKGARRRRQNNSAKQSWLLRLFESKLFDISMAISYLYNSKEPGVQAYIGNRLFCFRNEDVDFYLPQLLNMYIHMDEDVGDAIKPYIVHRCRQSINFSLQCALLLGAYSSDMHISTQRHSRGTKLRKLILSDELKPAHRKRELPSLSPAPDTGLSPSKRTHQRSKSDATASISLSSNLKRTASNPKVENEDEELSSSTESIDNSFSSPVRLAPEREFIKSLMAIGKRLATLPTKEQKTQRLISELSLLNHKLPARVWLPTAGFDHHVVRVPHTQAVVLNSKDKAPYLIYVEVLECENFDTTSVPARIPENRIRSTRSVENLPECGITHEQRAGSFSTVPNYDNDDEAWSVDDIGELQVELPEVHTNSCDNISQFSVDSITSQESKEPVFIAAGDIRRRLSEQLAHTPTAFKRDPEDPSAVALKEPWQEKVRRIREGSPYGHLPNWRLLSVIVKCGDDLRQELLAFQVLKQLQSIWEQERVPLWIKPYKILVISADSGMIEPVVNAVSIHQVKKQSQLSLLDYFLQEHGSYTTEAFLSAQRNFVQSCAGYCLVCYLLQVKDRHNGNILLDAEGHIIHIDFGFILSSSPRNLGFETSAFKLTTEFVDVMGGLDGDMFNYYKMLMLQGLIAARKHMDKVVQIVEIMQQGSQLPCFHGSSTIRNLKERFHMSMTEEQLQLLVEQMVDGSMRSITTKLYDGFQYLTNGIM

[3] = system: Cryptosporidium hominis; experiment: Cytopathic effect (CPE) based assay, C. hominis-infected HCT-8 cells; type: cell-based; conditions: HCT-8 host cells, 48 hours treatment, CellTiter-Glo, read-out: (c) C.h.* CPE EC50
Description: as §1
Cryptosporidium hominis oocysts were purchased from the Tufts University Cummings School of Veterinary Medicine (courtesy of Dr. Saul Tzipori). C. hominis oocysts were purified from infected gnotobiotic piglet feces and stored in PBS solution containing 0.01% Tween-20, 100 units/mL penicillin and 100 units/mL gentamicin. C. parvum and C. hominis oocysts less than three months old from the date of shedding were used in infection experiments.
as §2
Compound and assay plate preparation: Compound powders were dissolved in neat DMSO (Fisher, D4121) to 10 mM and stored at 4° C. prior to dilution into source plates. Dilutions were carried out using a Microlab STAR liquid handler (Hamilton) to obtain compound source plates containing the ten-point or eight-point three fold dilutions starting from 10 mM in duplicates. […]

[4] = molecular target: C. parvum PI(4)K (Cryptosporidium parvum, UniProt Q5CVD3); experiment: CpPI(4)K enzymatic assay (Transcreener ADP2 FP); type: biochemical
C. parvum PI(4)K, sequence (Q5CVD3 entry or part of it): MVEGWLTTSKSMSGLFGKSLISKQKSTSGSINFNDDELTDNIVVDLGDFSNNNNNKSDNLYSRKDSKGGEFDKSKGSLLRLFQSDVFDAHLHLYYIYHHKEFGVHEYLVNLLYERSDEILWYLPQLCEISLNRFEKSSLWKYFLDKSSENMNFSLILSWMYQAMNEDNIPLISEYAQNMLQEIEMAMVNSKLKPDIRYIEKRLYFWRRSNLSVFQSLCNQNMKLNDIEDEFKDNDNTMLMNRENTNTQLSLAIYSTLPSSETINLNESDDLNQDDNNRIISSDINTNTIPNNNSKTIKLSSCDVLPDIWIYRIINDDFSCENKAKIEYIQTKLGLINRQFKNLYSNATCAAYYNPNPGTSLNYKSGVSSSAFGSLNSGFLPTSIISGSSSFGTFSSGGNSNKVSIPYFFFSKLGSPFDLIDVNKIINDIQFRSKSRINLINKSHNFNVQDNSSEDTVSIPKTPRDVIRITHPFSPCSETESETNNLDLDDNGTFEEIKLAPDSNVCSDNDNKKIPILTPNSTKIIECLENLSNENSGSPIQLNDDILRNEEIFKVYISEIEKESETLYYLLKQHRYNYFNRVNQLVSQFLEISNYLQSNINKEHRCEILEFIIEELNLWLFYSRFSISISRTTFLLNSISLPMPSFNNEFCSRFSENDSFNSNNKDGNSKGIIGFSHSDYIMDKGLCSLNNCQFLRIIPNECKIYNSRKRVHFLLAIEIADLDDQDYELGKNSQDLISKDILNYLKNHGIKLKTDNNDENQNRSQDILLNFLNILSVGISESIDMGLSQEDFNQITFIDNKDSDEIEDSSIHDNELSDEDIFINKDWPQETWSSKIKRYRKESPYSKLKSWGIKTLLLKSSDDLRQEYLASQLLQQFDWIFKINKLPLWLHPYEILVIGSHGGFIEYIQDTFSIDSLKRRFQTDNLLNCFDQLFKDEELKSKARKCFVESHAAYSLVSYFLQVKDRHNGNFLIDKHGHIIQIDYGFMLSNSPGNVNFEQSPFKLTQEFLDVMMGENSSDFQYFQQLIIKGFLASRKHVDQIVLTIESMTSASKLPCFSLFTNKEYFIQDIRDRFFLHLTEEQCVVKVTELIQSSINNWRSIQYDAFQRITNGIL
From the text: Baculovirus expression and purification of C. parvum phosphatidylinositol 4-kinase: The full-length coding sequence of C. parvum PI(4)K (cgd8_4500, 1114 amino acids) was codon-optimized for baculovirus expression, synthesized and cloned into pFastBac-HTb (Invitrogen 10584-027) in frame with the amino-terminal polyhistidine tag using the BamHI and HindIII restriction sites. Recombinant pFastBacHTb-CpPI(4)K bacmid clones were generated by site-specific transposition in E. coli DH10Bac (Invitrogen 10361-012). The bacmid sequence was confirmed by direct DNA sequencing to confirm a lack of mutations across the whole gene. The subsequent steps for bacmid isolation, transfection and selection of the recombinant viruses were performed according to the manufacturer's protocol (Bac-to-Bac system #10359, Invitrogen).
SF9 cells, cultured in […] serum-free medium, were transfected with recombinant baculovirus at 1/200 (v/v) and incubated at 27° C. for 72 h. The pellets were collected after centrifugation and re-suspended in cell lysis buffer (20 mM Tris-HCl, pH 7.5, 300 mM NaCl, 1 mM DTT, 20 mM imidazole, 0.01% Triton X-100 and 1× complete protease inhibitor cocktail without EDTA (Roche Diagnostics 04693116001)). The cell suspension was lysed by sonication and the clarified supernatant was loaded onto a 1 ml HisTrap affinity column (GE Healthcare) pre-equilibrated with buffer A (20 mM Tris-HCl, pH 7.5, 300 mM NaCl, 1 mM DTT, 20 mM Imidazole, and 1× complete protease inhibitor cocktail without EDTA). The column was washed with buffer B (buffer A containing 45 mM imidazole) and the bound protein of interest was eluted with buffer C (buffer A with 90 mM imidazole). The fractions containing CpPI(4)K were pooled, concentrated using Amicon Ultra-15 and purified by a gel-filtration column (Hi-Load 26/60 Superdex 200, GE Healthcare) equilibrated with 20 mM Tris, pH 7.5, 300 mM NaCl, 1 mM DTT and 1× protease inhibitor cocktail without EDTA. The concentrations of the purified protein (Mw 132.39 kda) was determined by using the protein molar extinction coefficient (ε280 nm=133,810 M^−1 cm^−1). Aliquots were flash frozen in liquid nitrogen and immediately stored at −80° C.
PI(4)K enzymatic Assay The CpPI(4)K enzymatic assay was performed as described earlier with a some modifications (McNamara et al., 2013). Briefly, L-α-phosphatidylinositol (Avanti Polar Lipid 840046), dissolved in 3% n-octylglucoside (Roche Diagnostics 10634425001), was used as the lipid substrate for the PI(4)K activity assay. CpPI(4)K was assayed using Transcreener ADP2 FP detection kit (BellBrook 3010) in a black, solid 384-well plate (Corning 3575). The final assay volume was 10 μl and contained 3 nM of the respective CpPI(4)K construct in 10 mM Tris, pH 7.5, 1 mM DTT, 3 μM ATP, 5 mM Mn2+, 0.05% Triton X-100 and 10 μM phosphatidylinositol/octylglucoside. The enzyme reaction was performed for 50 minutes at room temperature and was stopped by adding 10 μl of detection mix containing 1× stop buffer (50 mM HEPES, pH7.5, 400 mM NaCl, 20 mM EDTA, and 0.02% Brij-35), 2 nM AMP Alexa Fluor 633 tracer, and 20 μg ml^−1 ADP antibody. Fluorescence polarization measurements were performed on the Infinite M1000 plate reader (Tecan) with λex=635 nm and λem=680 nm (20-nm bandwidth). IC50 values were calculated using Graphpad Prism software.

SMILES	EC50 [1] [µM]	IC50 [2] [µM]	EC50 [3] [µM]	IC50 [4] [µM]
COC(=O)c1cc(N(C)C(=O)c2ccn3ncc(-c4ccc(C(N)=O)cc4)c3c2)ccc1Cl [Example 1.01, Methyl 5-(3-(4-carbamoylphenyl)-N-methylpyrazolo[1,5-a]pyridine-5-carboxamido)-2-chlorobenzoate]	< 0.1	0.1 to 1	< 0.1	< 0.1
CN(C(=O)c1ccn2ncc(-c3ccc(C(N)=O)cc3)c2c1)c1ccc(Cl)c(C(=O)O)c1 [Example 1.03, 5-(3-(4-Carbamoylphenyl)-N-methylpyrazolo[1,5-a]pyridine-5-carboxamido)-2-chlorobenzoic acid]	> 1	0.1 to 1		< 0.1
CN(C(=O)c1ccn2ncc(-c3ccc(C(N)=O)cc3)c2c1)c1ccc(Cl)c(C(=O)OCCN2CCOCC2)c1 [Example 1.08, 2-Morpholinoethyl 5-(3-(4-carbamoylphenyl)-N-methylpyrazolo[1,5-a]pyrdine-5-carboxamido)-2-chlorobenzoate]	0.1 to 1	> 1		< 0.1
CNC(=O)c1ccc(-c2cnn3ccc(C(=O)N(C)c4ccc(Cl)c(C(=O)O)c4)cc23)cc1 [Example 1.18, 2-Chloro-5-(N-methyl-3-(4-(methylcarbamoyl)phenyl)pyrazolo[1,5-a]pyridine-5-carboxamido)benzoic acid]	> 1	0.1 to 1		< 0.1
CNC(=O)c1ccc(-c2cnn3ccc(C(=O)N(C)c4ccc(Cl)c(C(=O)OCCN5CCOCC5)c4)cc23)cc1 [Example 1.19, 2-Morpholinoethyl 2-chloro-5-(N-methyl-3-(4-(methylcarbamoyl)phenyl)pyrazolo[1,5-a]pyridine-5-carboxamido)benzoate]	0.1 to 1	0.1 to 1		< 0.1
COC(=O)c1cc(N(C)C(=O)c2ccn3ncc(-c4ccc(C(N)=O)cc4C)c3c2)ccc1Cl [Example 1.21, Methyl 2-chloro-5-(N-methyl-3-(2-methyl-4-(carbamoyl)phenyl)pyrazolo[1,5-a]pyridine-5-carboxamido)benzoate]	0.1 to 1	> 1		< 0.1
CNC(=O)c1ccc(-c2cnn3ccc(C(=O)N(C)c4ccc(Cl)c(C(=O)OC)c4)cc23)cc1C [Example 1.22]	> 1	> 1		0.1 to 1
COC(=O)c1cc(NC(=O)c2ccn3ncc(-c4ccc(C(N)=O)cc4)c3c2)ccc1Cl [Example 1.23, Methyl 5-(3-(4-carbamoylphenyl)pyrazolo[1,5-a]pyridine-5-carboxamido)-2-chlorobenzoate]	> 1	> 1		> 1
CNC(=O)c1ccc(-c2cnn3ccc(C(=O)Nc4ccc(Cl)c(C(=O)OC)c4)cc23)cc1 [Example 1.24, Methyl 2-chloro-5-(3-(4-(methylcarbamoyl)phenyl)pyrazolo[1,5-a]pyridine-5-carboxamido)benzoate]	> 1	> 1		> 1
COC(=O)c1cc(N(C)C(=O)c2ccn3ncc(-c4ccc(C(N)=O)cc4)c3c2)ccc1OC(F)(F)F [Example 1.25, Methyl 5-(3-(4-carbamoylphenyl)-N-methylpyrazolo[1,5-a]pyridine-5-carboxamido)-2-(trifluoromethoxy)benzoate]	0.1 to 1	> 1		< 0.1
COC(=O)c1cc(N(C)C(=O)c2ccn3ncc(-c4ccc(C(N)=O)cc4)c3c2)ccc1C#N [Example 1.27, Methyl 5-(3-(4-carbamoylphenyl)-N-methylpyrazolo[1,5-a]pyridine-5-carboxamido)-2-cyanobenzoate]	< 0.1	> 1		< 0.1
CNC(=O)c1ccc(-c2cnc3cnc(C(=O)N(C)c4ccc(Cl)c(C(=O)OC)c4)cn23)cc1 [Example 2.1, Methyl 2-chloro-5-(N-methyl-3-(4-(methylcarbamoyl)phenyl)imidazo[1,2-a]pyrazine-6-carboxamido)benzoate]	0.1 to 1	> 1		< 0.1
